According to patent US20260285853A1, “COMPOUNDS AND METHODS FOR MODULATING SPLICING” (REMIX THERAPEUTICS INC., priority 2023, published 2026):
pIC50: −log10 of the molar value. Where two headings read alike, the source gives them in different places.

What was measured:
Type in all cases: cell-based
[1] = test system: MYB mRNA; test: Splicing RT-qPCR assay (THP), Table 2A
[2] = test system: HTT mRNA; test: Splicing RT-qPCR assay (THP), Table 2A
[3] = test system: SH-SY5Y (human neuroblastoma) cells; test: Cell viability, Cell Titer Glo 2.0 assay; conditions: read-out: Viability SHSY5Y.3 GI50
Experimental: Compounds described herein were screened for toxicity in K562 (human chronic myelogenous leukemia) and SH-SY5Y (human neuroblastoma) cells using a Cell Titer Glo 2.0 assay.
• Promega CellTiter-Glo® 2.0 Cell Viability Assay (cat #G9241) • Corning 384-well TC-treated microplates (cat #3570)
Cells were plated at 500 cells/well (K562 cells) in 45 μL of IMDM supplemented with 10% FBS in a 384-well opaque plate. Wells containing only medium were used as a blank control. Test compounds (e.g., compounds of Formula (I) or (II) were first serially diluted in DMSO then diluted 1:100 with IMDM+10% FBS. The final concentration of DMSO was 0.1% in each well. The cells were incubated for 72 hours at 37° C. and 5% CO2 before assaying with Cell Titer Glo 2.0 reagent.

[4] = test system: HTT mRNA; test: Gene panel canonical junction qPCR assay, decrease in CJ mRNA, Table 3
Experimental: (§1) Compounds described herein were used to modulate RNA transcript abundance in cells. The expression of a target mRNA was measured by detecting the formation of an exon-exon junction in the canonical transcript (CJ). A compound mediated exon-inclusion event was detected by observing an increase in formation of a new junction with an alternative exon (AJ). Real-time qPCR assays were used to detect these splicing switches and interrogate the potency of various compounds towards different target genes. A high-throughput real time quantitative PCR (RT-qPCR) assay was developed to measure these two isoforms of the mRNA (CJ and AJ) for exemplary genes, such as HTT, SMN2, and MYB, together with a control housekeeping gene, GAPDH or GUSB or PPIA, used for normalization. Briefly, the A673 or K562 cell line was treated with various compounds described herein (e.g., compounds of Formula (I)). After treatment, the levels of the HTT, MYB, or SMN2 mRNA targets were determined from each sample of cell lysate by cDNA synthesis followed by qPCR.
(§2) The A673 cell line was cultured in DMEM with 10% FBS. Cells were diluted with full growth media and plated in a 96-well plate (15,000 cells in 100 ul media per well). The plate was incubated at 37° C. with 5% CO2 for 24 hours to allow cells to adhere. An 11-point 3-fold serial dilution of the compounds was made in DMSO then diluted in media in an intermediate plate. Compounds were transferred from the intermediate plate to the cell plate with the top dose at a final concentration of 10 uM in the well. Final DMSO concentration was kept at or below 0.25%. The cell plate was returned to the incubator at 37° C. with 5% CO2 for an additional 24 hours.
(§3) The K562 cell line was cultured in IMDM with 10% FBS. For K562, cells were diluted with full growth media and plated in either a 96-well plate (50,000 cells in 50 uL media per well) or a 384-well plate (8,000-40,000 cells in 45 uL media per well). An 11-point 3-fold serial dilution of the compounds were made in DMSO then diluted in media in an intermediate plate. Compound was transferred from the intermediate plate to the cell plate with the top dose at a final concentration of 10 uM in the well. Final DMSO concentration was kept at or below 0.25%. Final volume was 100 uL for 96-well plate and 50 uL for 384-well plate. The cell plate was then placed in an incubator at 37° C. with 5% CO2 for 24 hours.
(§4) The data analysis was performed by first determining the ΔCt vs the housekeeper gene. This ΔCt was then normalized against the DMSO control (ΔΔCt) and converted to RQ (relative quantification) using the 2^(−ΔΔCt) equation. The RQ were then converted to a percentage response by arbitrarily setting an assay window of 3.5 and 4.0 ΔCt for HTT-CJ and MYB-CJ respectively and an assay window of 9 and 3 ΔCt for HTT-AJ and MYB-AJ in 96 well format (50,000 K562 cells/well and 15,000 A673 cells per well) and an assay window of 3 and 4 ΔCt for HTT-CJ and MYB-CJ respectively and an assay window of 5 and 3 ΔCt for HTT-AJ and MYB-AJ respectively in 384 well format (8,000 K562 cells/well example). […] The percentage response was then fitted to the 4 parametric logistic equation to evaluate the concentration dependence of compound treatment. The increase in AJ mRNA is reported as AC50 (compound concentration having 50% response in AJ increase) while the decrease in CJ mRNA levels is reported as IC50 (compound concentration having 50% response in CJ decrease).
(§5) Additional studies were carried out for a larger panel of genes using the protocol provided above. The junction between flanking upstream and downstream exons was used to design canonical junction qPCR assays. At least one of the forward primer, reverse primer or the CY5-labeled 5′ nuclease probe (with 3′ quencher such as ZEN/Iowa Black FQ) was designed to overlap with the exon junction to capture the CJ mRNA transcript. […]

[5] = test system: MYB mRNA; test: as above
Experimental: as §1, §2, §3, §4, §5

[6] = Table 2A (THP), AJ mRNA increase, read-out: MYB AJ (increase in alternative junction mRNA, AC50)
[7] = Table 2A (THP), CJ mRNA decrease, read-out: MYB CJ (decrease in canonical junction mRNA, IC50)
[8] = Table 2A (THP), AJ mRNA increase, read-out: HTT AJ (increase in alternative junction mRNA, AC50)
[9] = Table 2A (THP), CJ mRNA decrease, read-out: HTT CJ (decrease in canonical junction mRNA, IC50)
[10] = decrease in canonical junction (CJ) mRNA, gene panel qPCR, Table 3
[11] = Table 2A, THP, MYB alternative junction (AJ) mRNA, read-out: MYB AJ (AC50, increase in alternative junction mRNA)
[12] = Table 2A, THP, MYB canonical junction (CJ) mRNA, read-out: MYB CJ (IC50, decrease in canonical junction mRNA)
[13] = Table 2A, THP, HTT alternative junction (AJ) mRNA, read-out: HTT AJ (AC50, increase in alternative junction mRNA)
[14] = Table 2A, THP, HTT canonical junction (CJ) mRNA, read-out: HTT CJ (IC50, decrease in canonical junction mRNA)
[15] = decrease in CJ mRNA levels, canonical junction qPCR, gene panel

| pIC50 [1, 7] | pIC50 [2, 9] | GI50 [3] [µM] | pIC50 [4, 10] | pIC50 [5, 10] | pIC50 [1, 12] | pIC50 [2, 14] | pIC50 [4, 15] | pIC50 [5, 15] | SMILES | AC50 [1, 6] [µM] | AC50 [2, 8] [µM] | AC50 [1, 11] [µM] | AC50 [2, 13] [µM] |
| --- | --- | --- | --- | --- | --- | --- | --- | --- | --- | --- | --- | --- | --- |
| > 7.00 | 5.00 to 6.00 | 0.1 to 1 | 5.00 to 6.00 | > 7.00 | – | – | – | – | Cc1cn2cc(NC(=O)c3c(F)cc(N4CCC(NC5CC5)CC4)c4cn(C)nc34)nc(Oc3ccccn3)c2n1 [Compound 408, 4-[4-(cyclopropylamino)-1-piperidy1]-6-fluoro-2-methyl-N-[2-methyl-8-(2-pyridyloxy)imidazo[1,2-a]-pyrazin-6-yl]indazole-7-carboxamide] | < 0.1 | 0.1 to 1 | – | – |
| 5.00 to 6.00 | 5.00 to 6.00 | 1 to 10 | 5.00 to 6.00 | 5.00 to 6.00 | – | – | – | – | CCNC1CCN(c2ccc(C(=O)Nc3nc4c(C)nc(C)cc4[nH]3)c3nn(C)cc23)CC1 [Compound 572, N-(4,6-dimethyl-1H-imidazo[4,5-c]-pyridin-2-yl)-4-[4-(ethylamino)-1-piperidyl]-2-methyl-indazole-7-carboxamide] | 1 to 10 | > 10 | – | – |
| – | – | > 10 | – | – | 5.00 to 6.00 | < 5.00 | < 5.00 | 5.00 to 6.00 | CCNC1CCN(c2ccc(C(=O)Nc3cn4cc(C)nc(CNS(C)(=O)=O)c4n3)c3nn(C)cc23)CC1 [Compound 884] | – | – | 1 to 10 | > 10 |
| – | – | 0.1 to 1 | – | – | > 7.00 | 5.00 to 6.00 | 5.00 to 6.00 | > 7.00 | COc1nc2c(C(=O)Nc3cc(F)c4nn(C)cc4c3)ccc(N3C[C@@H](C)N[C@H](C)C3)c2s1 [Compound 719, 7-[(3R,5R)-3,5-dimethylpiperazin-1-yl]-N-(7-fluoro-2-methyl-indazol-5-yl)-2-methoxy-1,3-benzothiazole-4-carboxamide] | – | – | < 0.1 | 1 to 10 |
| – | – | > 10 | – | – | < 5.00 | < 5.00 | < 5.00 | < 5.00 | COc1cc(N2CCC(NC3CC3)CC2)c2cn(C)nc2c1C(=O)Nc1cc(CNS(C)(=O)=O)c2nn(C)cc2c1 [Compound 853] | – | – | > 10 | > 10 |
| > 7.00 | 5.00 to 6.00 | 0.1 to 1 | 5.00 to 6.00 | > 7.00 | – | – | – | – | COc1c(NC(=O)c2c(F)cc(N3CCC(NC4CC4)C4(CC4)C3)c3cn(C)nc23)cn2cc(C)nc2c1F (centres unmarked) [Compound 369, 4-[8-(cyclopropylamino)-5-azaspiro [2.5]octan-5-yl]-6-fluoro-N-(8-fluoro-7-methoxy-2-methyl-imidazo[1,2-a]-pyridin-6-yl)-2-methyl-indazole-7-carbox-amide] | < 0.1 | 0.1 to 1 | – | – |
| > 7.00 | 5.00 to 6.00 | 0.1 to 1 | 5.00 to 6.00 | > 7.00 | – | – | – | – | CCNC1(C)CCN(c2cc(F)c(C(=O)Nc3cn4cc(C)nc(C)c4n3)c3nn(C)cc23)CC1 [Compound 375, N-(6,8-dimethylimidazo[1,2-a]pyrazin-2-yl)-4-[4-(ethylamino)-4-methyl-1-piperidyl]-6-fluoro-2-methyl-indazole-7-carboxamide] | < 0.1 | 1 to 10 | – | – |
| 6.00 to 7.00 | 6.00 to 7.00 | 0.1 to 1 | 6.00 to 7.00 | 6.00 to 7.00 | – | – | – | – | COc1cc2nn(C)cc2cc1NC(=O)c1ccc(N2CCC(NC3CC3)CC2)c2cc(CO)nn12 [Compound 443, 4-(4-(cyclopropylamino)piperidin-1-yl)-2-(hydroxymethyl)-N-(6-methoxy-2-methyl-2H-indazol-5-yl)pyrazolo[1,5-a]pyridine-7-carboxamide 2,2,2-trifluoroacetate] | < 0.1 | 0.1 to 1 | – | – |
| < 5.00 | < 5.00 | > 10 | < 5.00 | < 5.00 | – | – | – | – | COc1cc2nn(C)cc2cc1C(=O)Nc1ccc(N2CCNCC2)c2cn(C)nc12 [Compound 489, 6-methoxy-2-methyl-N-(2-methyl-4-piperazin-1-yl-indazol-7-yl)-indazole-5-carboxamide] | > 10 | > 10 | – | – |
| < 5.00 | < 5.00 | > 10 | < 5.00 | < 5.00 | – | – | – | – | CNCC1CCCN(c2ccc(C(=O)Nc3cn4cc(C)nc(C)c4n3)c3nn(C)cc23)C1 (centres unmarked) [Compound 534] | > 10 | > 10 | – | – |
| < 5.00 | < 5.00 | > 10 | < 5.00 | < 5.00 | – | – | – | – | COc1cn2nc(C)cc2cc1C(=O)Nc1ccc(N2CCNCC2)c2cn(C)nc12 [Compound 488, 6-methoxy-2-methyl-N-(2-methyl-4-piperazin-1-yl-indazol-7-yl) pyrazolo[1,5-a]pyridine-5-carboxamide] | > 10 | > 10 | – | – |
| – | – | 1 to 10 | – | – | > 7.00 | < 5.00 | < 5.00 | > 7.00 | COc1nc2c(C(=O)Nc3cc(CNC(C)=O)c4nn(C)cc4c3)ccc(N3C[C@H](C)N[C@@H](C)C3)c2s1 [Compound 762, N-[7-(acetamidomethyl)-2-methyl-indazol-5-yl]-7-[(3S,5S)-3,5-dimethylpiperazin-1-yl]-2-methoxy-1,3-benzothiazole-4-carboxamide] | – | – | < 0.1 | > 10 |
| – | – | 1 to 10 | – | – | – | – | – | – | Cc1cn2cc(NC(=O)c3ccc(N4CCNCC4)c4cn(C)nc34)cc(Br)c2n1 [Compound 265, N-(8-bromo-2-methyl-imidazo[1,2-a]-pyridin-6-yl)-2-methyl-4-piperazin-1-yl-indazole-7-carboxamide] | – | – | – | – |
| < 5.00 | < 5.00 | – | – | – | – | – | – | – | Cc1cn2cc(NC(=O)c3ncc(N4CCC(NC5CC5)CC4)c4cn(C)nc34)nc2c(C)n1 [Compound 264, 4-[4-(cyclopropylamino)-1-piperidyl]-N-(6,8-dimethylimidazo[1,2-a]pyrazin-2-yl)-2-methyl-pyrazolo[3,4-c]pyridine-7-carboxamide] | > 10 | > 10 | – | – |
